The kinase profiling compilation of Christmann-Franck et al. (2016)
Each block holds one compound with its values, some of them ahead of it.

Assays:
Assay in all cases: radiometric filter-binding kinase assay
[1] = tested on: AKT1 (human), P31749 [S473D]
AURKA (human) = AURKA (human) (UniProt O14965)
BRSK1 (human) = BRSK1 (human) (UniProt Q8TDC3)
BRSK2 (human) = BRSK2 (human) (UniProt Q8IWQ3)
CSK (human) = CSK (human) (UniProt P41240)
CSNK1D (human) = CSNK1D (human) (UniProt P48730)
EEF2K (human) = EEF2K (human) (UniProt O00418)
EPHA4 (human) = EPHA4 (human) (UniProt P54764)
ERBB4 (human) = ERBB4 (human) (UniProt Q15303)
FGFR1 (human) = FGFR1 (human) (UniProt P11362)
GSK3B (human) = GSK3B (human) (UniProt P49841)
HIPK1 (human) = HIPK1 (human) (UniProt Q86Z02)
HIPK3 (human) = HIPK3 (human) (UniProt Q9H422)
IKBKB (human) = IKBKB (human) (UniProt O14920)
MAP2K2 (human) = MAP2K2 (human) (UniProt P36507)
MAP2K6 (human) = MAP2K6 (human) (UniProt P52564)
MAP3K1 (human) = MAP3K1 (human) (UniProt Q13233)
MAP3K5 (human) = MAP3K5 (human) (UniProt Q99683)
MAPK1 (human) = MAPK1 (human) (UniProt P28482)
MAPK15 (human) = MAPK15 (human) (UniProt Q8TD08)
MAPK3 (human) = MAPK3 (human) (UniProt P27361)
MAPK8 (human) = MAPK8 (human) (UniProt P45983)
MAPK9 (human) = MAPK9 (human) (UniProt P45984)
MAPKAPK3 (human) = MAPKAPK3 (human) (UniProt Q16644)
MKNK2 (human) = MKNK2 (human) (UniProt Q9HBH9)
NEK6 (human) = NEK6 (human) (UniProt Q9HC98)
[2] = tested on: PAK2 (human), Q13177 [T402E]
PAK7 (human) = PAK7 (human) (UniProt Q9P286)
PLK1 (human) = PLK1 (human) (UniProt P53350)
RPS6KA3 KD1 KD2 (human) = RPS6KA3 KD1 KD2 (human) (UniProt P51812)
RPS6KA5 KD1 KD2 (human) = RPS6KA5 KD1 KD2 (human) (UniProt O75582)
SRPK1 (human) = SRPK1 (human) (UniProt Q96SB4)
[3] = biological target: STK11 CAB39 STRADA (human) (UniProt Q9Y376+Q7RTN6+Q15831)
TBK1 (human) = TBK1 (human) (UniProt Q9UHD2)
BTK (human) = BTK (human) (UniProt Q06187); settings: compound 0.1 µM

SRPK1 (human), sequence (Q96SB4 whole entry, looked up): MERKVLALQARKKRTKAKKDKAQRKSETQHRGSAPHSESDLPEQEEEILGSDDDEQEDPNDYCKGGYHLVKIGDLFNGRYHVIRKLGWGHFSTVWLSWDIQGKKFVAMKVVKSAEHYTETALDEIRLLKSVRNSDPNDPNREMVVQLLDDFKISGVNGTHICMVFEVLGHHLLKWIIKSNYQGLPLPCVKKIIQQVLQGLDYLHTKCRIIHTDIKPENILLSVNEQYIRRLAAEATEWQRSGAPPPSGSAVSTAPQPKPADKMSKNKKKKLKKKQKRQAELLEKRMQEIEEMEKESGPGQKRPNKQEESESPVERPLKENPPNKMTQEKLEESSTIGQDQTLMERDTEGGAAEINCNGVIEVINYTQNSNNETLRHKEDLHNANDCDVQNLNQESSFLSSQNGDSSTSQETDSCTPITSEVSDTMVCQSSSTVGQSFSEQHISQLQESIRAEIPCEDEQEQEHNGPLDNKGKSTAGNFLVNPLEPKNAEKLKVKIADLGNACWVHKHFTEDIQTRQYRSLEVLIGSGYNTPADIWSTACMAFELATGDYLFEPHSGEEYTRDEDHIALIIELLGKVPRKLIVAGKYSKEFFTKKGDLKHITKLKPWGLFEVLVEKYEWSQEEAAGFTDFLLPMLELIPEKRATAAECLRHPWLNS
STK11 CAB39 STRADA (human), sequence (Q15831 whole entry, looked up): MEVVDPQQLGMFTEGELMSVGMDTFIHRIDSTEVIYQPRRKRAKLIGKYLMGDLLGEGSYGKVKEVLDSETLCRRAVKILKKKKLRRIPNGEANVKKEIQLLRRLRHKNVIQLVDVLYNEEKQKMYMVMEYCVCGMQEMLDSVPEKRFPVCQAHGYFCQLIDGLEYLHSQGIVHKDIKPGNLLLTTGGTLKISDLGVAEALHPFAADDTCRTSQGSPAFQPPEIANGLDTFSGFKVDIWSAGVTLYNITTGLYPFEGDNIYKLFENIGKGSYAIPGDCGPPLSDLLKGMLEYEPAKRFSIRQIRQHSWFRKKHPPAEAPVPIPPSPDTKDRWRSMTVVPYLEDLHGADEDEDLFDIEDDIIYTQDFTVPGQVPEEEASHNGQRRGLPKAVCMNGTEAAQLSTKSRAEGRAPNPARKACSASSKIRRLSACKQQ
STK11 CAB39 STRADA (human), sequence (Q7RTN6 whole entry, looked up): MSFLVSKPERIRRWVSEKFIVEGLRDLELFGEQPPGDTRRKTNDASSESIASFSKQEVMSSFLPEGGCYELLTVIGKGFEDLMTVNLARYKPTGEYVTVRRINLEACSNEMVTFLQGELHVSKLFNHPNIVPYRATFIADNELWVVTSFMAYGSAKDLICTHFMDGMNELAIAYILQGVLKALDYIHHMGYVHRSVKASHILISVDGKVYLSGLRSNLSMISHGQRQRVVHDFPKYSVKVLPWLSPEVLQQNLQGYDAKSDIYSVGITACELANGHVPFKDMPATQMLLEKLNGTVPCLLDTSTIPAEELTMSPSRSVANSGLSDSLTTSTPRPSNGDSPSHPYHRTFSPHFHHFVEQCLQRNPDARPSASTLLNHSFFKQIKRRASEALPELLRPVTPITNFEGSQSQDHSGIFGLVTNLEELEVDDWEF
STK11 CAB39 STRADA (human), sequence (Q9Y376 whole entry, looked up): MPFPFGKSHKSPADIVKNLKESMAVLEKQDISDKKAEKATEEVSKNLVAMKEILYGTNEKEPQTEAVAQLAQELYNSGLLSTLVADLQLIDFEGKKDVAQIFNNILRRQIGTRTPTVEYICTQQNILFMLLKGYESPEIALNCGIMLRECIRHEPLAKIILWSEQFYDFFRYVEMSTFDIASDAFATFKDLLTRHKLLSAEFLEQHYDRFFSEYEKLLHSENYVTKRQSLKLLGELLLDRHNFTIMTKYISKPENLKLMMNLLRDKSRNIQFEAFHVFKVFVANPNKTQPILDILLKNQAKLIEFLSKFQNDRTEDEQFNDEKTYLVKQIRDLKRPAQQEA
BRSK2 (human), sequence (Q8IWQ3 whole entry, looked up): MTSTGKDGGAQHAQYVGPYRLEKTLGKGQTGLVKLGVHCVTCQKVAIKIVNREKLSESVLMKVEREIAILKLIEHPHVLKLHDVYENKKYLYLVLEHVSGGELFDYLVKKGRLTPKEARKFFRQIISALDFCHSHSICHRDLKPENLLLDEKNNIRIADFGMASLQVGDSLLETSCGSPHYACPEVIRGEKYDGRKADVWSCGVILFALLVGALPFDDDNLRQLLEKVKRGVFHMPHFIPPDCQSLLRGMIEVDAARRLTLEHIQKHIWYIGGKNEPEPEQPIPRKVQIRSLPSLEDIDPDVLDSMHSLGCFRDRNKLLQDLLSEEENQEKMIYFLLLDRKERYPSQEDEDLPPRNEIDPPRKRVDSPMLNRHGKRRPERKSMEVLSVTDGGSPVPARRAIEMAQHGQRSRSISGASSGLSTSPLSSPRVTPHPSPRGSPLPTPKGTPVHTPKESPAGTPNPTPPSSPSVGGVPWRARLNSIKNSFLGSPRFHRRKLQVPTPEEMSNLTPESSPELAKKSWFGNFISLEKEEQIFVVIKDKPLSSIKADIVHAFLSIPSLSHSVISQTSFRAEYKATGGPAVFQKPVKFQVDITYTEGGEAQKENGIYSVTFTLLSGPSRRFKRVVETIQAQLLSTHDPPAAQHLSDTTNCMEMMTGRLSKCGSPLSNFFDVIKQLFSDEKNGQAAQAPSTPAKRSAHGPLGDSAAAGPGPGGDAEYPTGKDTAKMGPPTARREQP
AURKA (human), sequence (O14965 whole entry, looked up): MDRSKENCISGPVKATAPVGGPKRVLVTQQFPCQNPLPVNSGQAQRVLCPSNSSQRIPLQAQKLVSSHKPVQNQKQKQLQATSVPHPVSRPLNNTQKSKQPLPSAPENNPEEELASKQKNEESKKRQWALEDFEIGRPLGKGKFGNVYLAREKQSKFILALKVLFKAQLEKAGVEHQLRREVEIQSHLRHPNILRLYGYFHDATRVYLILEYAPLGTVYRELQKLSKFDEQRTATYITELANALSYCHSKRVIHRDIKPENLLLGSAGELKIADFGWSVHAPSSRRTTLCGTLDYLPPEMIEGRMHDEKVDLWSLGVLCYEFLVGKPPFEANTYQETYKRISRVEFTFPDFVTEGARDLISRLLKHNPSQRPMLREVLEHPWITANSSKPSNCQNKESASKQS
MAP2K2 (human), sequence (P36507 whole entry, looked up): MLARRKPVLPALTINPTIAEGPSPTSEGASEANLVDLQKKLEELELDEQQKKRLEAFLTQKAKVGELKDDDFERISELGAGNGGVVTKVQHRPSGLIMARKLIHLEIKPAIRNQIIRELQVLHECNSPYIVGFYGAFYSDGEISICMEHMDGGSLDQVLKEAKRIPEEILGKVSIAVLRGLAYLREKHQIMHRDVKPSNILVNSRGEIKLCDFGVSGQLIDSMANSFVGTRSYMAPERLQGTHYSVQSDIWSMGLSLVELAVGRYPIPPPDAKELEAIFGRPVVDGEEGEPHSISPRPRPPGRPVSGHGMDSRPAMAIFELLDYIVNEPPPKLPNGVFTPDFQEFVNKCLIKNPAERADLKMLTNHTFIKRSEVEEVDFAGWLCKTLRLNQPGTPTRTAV
AKT1 (human), P31749 [S473D], sequence (P31749 whole entry S473D, looked up): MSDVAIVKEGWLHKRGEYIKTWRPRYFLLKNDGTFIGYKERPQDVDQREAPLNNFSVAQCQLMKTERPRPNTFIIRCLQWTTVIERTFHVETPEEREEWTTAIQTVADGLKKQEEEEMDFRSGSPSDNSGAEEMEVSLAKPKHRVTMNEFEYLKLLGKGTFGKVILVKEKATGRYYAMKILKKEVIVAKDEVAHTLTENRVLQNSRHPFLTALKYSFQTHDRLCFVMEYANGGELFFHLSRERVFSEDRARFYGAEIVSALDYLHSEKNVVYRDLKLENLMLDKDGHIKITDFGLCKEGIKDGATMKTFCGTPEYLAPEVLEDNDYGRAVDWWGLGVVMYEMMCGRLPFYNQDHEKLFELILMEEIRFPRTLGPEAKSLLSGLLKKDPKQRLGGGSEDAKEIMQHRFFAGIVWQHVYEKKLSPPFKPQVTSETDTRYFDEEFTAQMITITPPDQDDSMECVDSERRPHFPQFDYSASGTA
EPHA4 (human), sequence (P54764 whole entry, looked up): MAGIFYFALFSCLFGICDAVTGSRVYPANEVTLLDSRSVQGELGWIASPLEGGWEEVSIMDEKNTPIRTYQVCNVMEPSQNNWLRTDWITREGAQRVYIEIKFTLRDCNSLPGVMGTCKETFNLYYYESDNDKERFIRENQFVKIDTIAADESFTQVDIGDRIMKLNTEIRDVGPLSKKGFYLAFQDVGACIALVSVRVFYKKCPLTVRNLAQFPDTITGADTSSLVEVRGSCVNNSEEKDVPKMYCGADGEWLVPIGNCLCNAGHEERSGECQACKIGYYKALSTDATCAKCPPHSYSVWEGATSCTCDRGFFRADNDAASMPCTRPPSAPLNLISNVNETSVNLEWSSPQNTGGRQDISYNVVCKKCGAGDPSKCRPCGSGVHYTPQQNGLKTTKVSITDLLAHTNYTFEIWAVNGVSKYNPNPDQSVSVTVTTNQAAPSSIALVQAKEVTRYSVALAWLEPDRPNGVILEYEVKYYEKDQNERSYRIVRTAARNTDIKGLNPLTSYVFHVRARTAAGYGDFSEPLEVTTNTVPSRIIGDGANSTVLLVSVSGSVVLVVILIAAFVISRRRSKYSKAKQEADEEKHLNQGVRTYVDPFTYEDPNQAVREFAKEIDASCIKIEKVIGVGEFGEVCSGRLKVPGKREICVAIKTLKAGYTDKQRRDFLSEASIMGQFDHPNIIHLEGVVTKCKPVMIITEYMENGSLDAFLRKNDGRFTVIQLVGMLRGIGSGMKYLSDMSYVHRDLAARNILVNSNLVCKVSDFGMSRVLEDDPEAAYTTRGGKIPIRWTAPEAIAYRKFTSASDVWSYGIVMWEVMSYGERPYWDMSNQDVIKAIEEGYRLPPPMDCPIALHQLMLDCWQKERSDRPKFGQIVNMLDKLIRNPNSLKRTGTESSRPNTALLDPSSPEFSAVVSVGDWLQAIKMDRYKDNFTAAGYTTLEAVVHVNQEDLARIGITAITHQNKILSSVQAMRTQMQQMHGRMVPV

residual activity ([1]; compound 0.1 µM): 79%
residual activity ([1]; compound 1.0 µM): 97%
residual activity ([1]; compound 10.0 µM): 78%
residual activity (AURKA (human); compound 0.1 µM): 92%
residual activity (AURKA (human); compound 1.0 µM): 57%
residual activity (AURKA (human); compound 10.0 µM): 10%
residual activity (BRSK1 (human); compound 10.0 µM): 49%
residual activity (BRSK2 (human); compound 0.1 µM): 100%
residual activity (BRSK2 (human); compound 1.0 µM): 91%
residual activity (BRSK2 (human); compound 10.0 µM): 61%
residual activity (CSK (human); compound 0.1 µM): 25%
residual activity (CSK (human); compound 1.0 µM): 15%
residual activity (CSK (human); compound 10.0 µM): 3%
residual activity (CSNK1D (human); compound 0.1 µM): 98%
residual activity (CSNK1D (human); compound 1.0 µM): 111%
residual activity (CSNK1D (human); compound 10.0 µM): 115%
residual activity (EEF2K (human); compound 0.1 µM): 88%
residual activity (EEF2K (human); compound 10.0 µM): 90%
residual activity (EPHA4 (human); compound 1.0 µM): 92%
residual activity (EPHA4 (human); compound 10.0 µM): 45%
residual activity (ERBB4 (human); compound 0.1 µM): 7%
residual activity (ERBB4 (human); compound 1.0 µM): 8%
residual activity (ERBB4 (human); compound 10.0 µM): 5%
residual activity (FGFR1 (human); compound 0.1 µM): 52%
residual activity (FGFR1 (human); compound 1.0 µM): 24%
residual activity (FGFR1 (human); compound 10.0 µM): 15%
residual activity (GSK3B (human); compound 0.1 µM): 104%
residual activity (GSK3B (human); compound 1.0 µM): 95%
residual activity (GSK3B (human); compound 10.0 µM): 75%
residual activity (HIPK1 (human); compound 0.1 µM): 75%
residual activity (HIPK1 (human); compound 1.0 µM): 87%
residual activity (HIPK1 (human); compound 10.0 µM): 75%
residual activity (HIPK3 (human); compound 0.1 µM): 100%
residual activity (HIPK3 (human); compound 1.0 µM): 123%
residual activity (HIPK3 (human); compound 10.0 µM): 110%
residual activity (IKBKB (human); compound 0.1 µM): 94%
residual activity (IKBKB (human); compound 1.0 µM): 107%
residual activity (IKBKB (human); compound 10.0 µM): 90%
residual activity (MAP2K2 (human); compound 0.1 µM): 94%
residual activity (MAP2K2 (human); compound 1.0 µM): 94%
residual activity (MAP2K2 (human); compound 10.0 µM): 63%
residual activity (MAP2K6 (human); compound 0.1 µM): 82%
residual activity (MAP2K6 (human); compound 1.0 µM): 97%
residual activity (MAP2K6 (human); compound 10.0 µM): 61%
residual activity (MAP3K1 (human); compound 0.1 µM): 106%
residual activity (MAP3K1 (human); compound 1.0 µM): 103%
residual activity (MAP3K1 (human); compound 10.0 µM): 56%
residual activity (MAP3K5 (human); compound 0.1 µM): 103%
residual activity (MAP3K5 (human); compound 1.0 µM): 128%
residual activity (MAP3K5 (human); compound 10.0 µM): 111%
residual activity (MAPK1 (human); compound 0.1 µM): 94%
residual activity (MAPK1 (human); compound 1.0 µM): 99%
residual activity (MAPK1 (human); compound 10.0 µM): 90%
residual activity (MAPK3 (human); compound 0.1 µM): 83%
residual activity (MAPK3 (human); compound 10.0 µM): 84%
residual activity (MAPK8 (human); compound 0.1 µM): 98%
residual activity (MAPK8 (human); compound 1.0 µM): 98%
residual activity (MAPK8 (human); compound 10.0 µM): 75%
residual activity (MAPK9 (human); compound 0.1 µM): 89%
residual activity (MAPK9 (human); compound 1.0 µM): 101%
residual activity (MAPKAPK3 (human); compound 0.1 µM): 109%
residual activity (MAPKAPK3 (human); compound 1.0 µM): 109%
residual activity (MKNK2 (human); compound 0.1 µM): 106%
residual activity (MKNK2 (human); compound 10.0 µM): 67%
residual activity (NEK6 (human); compound 0.1 µM): 76%
residual activity (NEK6 (human); compound 1.0 µM): 99%
residual activity (NEK6 (human); compound 10.0 µM): 93%
residual activity ([2]; compound 0.1 µM): 87%
residual activity ([2]; compound 1.0 µM): 72%
residual activity ([2]; compound 10.0 µM): 55%
residual activity (PAK7 (human); compound 0.1 µM): 93%
residual activity (PAK7 (human); compound 1.0 µM): 97%
residual activity (PAK7 (human); compound 10.0 µM): 50%
residual activity (PLK1 (human); compound 0.1 µM): 88%
residual activity (PLK1 (human); compound 1.0 µM): 95%
residual activity (PLK1 (human); compound 10.0 µM): 76%
residual activity (RPS6KA3 KD1 KD2 (human); compound 0.1 µM): 103%
residual activity (RPS6KA3 KD1 KD2 (human); compound 1.0 µM): 106%
residual activity (RPS6KA3 KD1 KD2 (human); compound 10.0 µM): 68%
residual activity (RPS6KA5 KD1 KD2 (human); compound 0.1 µM): 94%
residual activity (RPS6KA5 KD1 KD2 (human); compound 1.0 µM): 101%
residual activity (RPS6KA5 KD1 KD2 (human); compound 10.0 µM): 55%
residual activity (SRPK1 (human); compound 0.1 µM): 100%
residual activity (SRPK1 (human); compound 1.0 µM): 115%
residual activity (SRPK1 (human); compound 10.0 µM): 99%
residual activity ([3]; compound 0.1 µM): 106%
residual activity ([3]; compound 10.0 µM): 100%
residual activity (TBK1 (human); compound 0.1 µM): 102%
residual activity (TBK1 (human); compound 1.0 µM): 113%
residual activity (TBK1 (human); compound 10.0 µM): 90%
SMILES: C=CC(=O)N1CCC[C@@H](n2nc(-c3ccc(Oc4ccccc4)cc3)c3c(N)ncnc32)C1
residual activity (MAPK15 (human); compound 0.1 µM): 85%
residual activity (MAPK15 (human); compound 1.0 µM): 98%
residual activity (MAPK15 (human); compound 10.0 µM): 74%

residual activity ([1]; compound 0.1 µM): 99%
residual activity (AURKA (human); compound 0.1 µM): 112%
residual activity (BRSK1 (human); compound 0.1 µM): 94%
residual activity (BRSK2 (human); compound 0.1 µM): 96%
residual activity (BTK (human)): 57%
residual activity (CSK (human); compound 0.1 µM): 74%
residual activity (CSNK1D (human); compound 0.1 µM): 115%
residual activity (EEF2K (human); compound 0.1 µM): 65%
residual activity (EPHA4 (human); compound 0.1 µM): 49%
residual activity (ERBB4 (human); compound 0.1 µM): 67%
residual activity (FGFR1 (human); compound 0.1 µM): 110%
residual activity (GSK3B (human); compound 0.1 µM): 101%
residual activity (HIPK3 (human); compound 0.1 µM): 101%
residual activity (IKBKB (human); compound 0.1 µM): 119%
residual activity (MAP2K2 (human); compound 0.1 µM): 107%
residual activity (MAP2K6 (human); compound 0.1 µM): 100%
residual activity (MAP3K1 (human); compound 0.1 µM): 84%
residual activity (MAP3K5 (human); compound 0.1 µM): 100%
residual activity (MAPK1 (human); compound 0.1 µM): 100%
residual activity (MAPK3 (human); compound 0.1 µM): 93%
residual activity (MAPK8 (human); compound 0.1 µM): 97%
residual activity (MAPK9 (human); compound 0.1 µM): 88%
residual activity (MAPKAPK3 (human); compound 0.1 µM): 92%
residual activity (MKNK2 (human); compound 0.1 µM): 110%
residual activity (NEK6 (human); compound 0.1 µM): 101%
residual activity ([2]; compound 0.1 µM): 94%
residual activity (PAK7 (human); compound 0.1 µM): 98%
residual activity (PLK1 (human); compound 0.1 µM): 96%
residual activity (RPS6KA5 KD1 KD2 (human); compound 0.1 µM): 103%
residual activity (SRPK1 (human); compound 0.1 µM): 82%
residual activity ([3]; compound 0.1 µM): 112%
residual activity (TBK1 (human); compound 0.1 µM): 103%
SMILES: CN1CCN(CCOc2cc(OC3CCOCC3)c3c(Nc4c(Cl)ccc5c4OCO5)ncnc3c2)CC1
residual activity (MAPK15 (human); compound 0.1 µM): 134%
